Patent US20060003893A1, “Controlled release fertilizers employing ureaform compounds and processes for making same” (priority 2004, published 2006)

Test: Controlled Release Soil Test (irrigated soil burial test)
Assay type: physicochemical
Source text: To measure the relative solubilities of the products in soil, an irrigated soil burial test (“Controlled Release Soil Test”) was devised such that granules could be retrieved for measurement of their nitrogen content. The following is a description of the test.
Controlled Release Soil Test
Procedure for Controlled Release Soil Test
• 1. Screen the sample to obtain −6+7 Tyler mesh granules for the test. • 2. Label a freezer container with the test description. • 3. Place the freezer container on the 1200 g balance and tare out. • 4. Place 300 g of potting soil with a 40% moisture content into the container and record the weight. • 5. Over the soil place two (2) pieces of fiberglass mesh with 14 meshes to the inch and 1/16 inch openings. • 6. Tare out the container with the soil and fiberglass mesh screens. • 7. Spread 5 grams of −6+7 Tyler mesh granules over the screen in a single layer and record the weight. • 8. Place a large square of fiberglass mesh over the granules, with a stainless steel screen cut to fit over it, so that the shape of the container has been mirrored. • 9. Once this is shaped, tare out the container and add 150 g of soil and record the weight. • 10. Repeat this process for each sample to be tested (in triplet if possible). • 11. After all containers are completed, fill a mist spray bottle with de-ionized water and prime. • 12. […]

time to go into solution: ≤ 9 h
Nitrogen Retained (%) 9 Hours (9 hours): 0%
Structure (SMILES): NC(N)=O [UREA, urea]
